From ChEMBL document CHEMBL5291721, “A preclinical secondary pharmacology resource illuminates target-adverse drug reaction associations of marketed drugs” (Nat Commun, 2023)

Columns and labels:
[1] = biological target: Sodium channel protein type 5 subunit alpha (Homo sapiens, UniProt Q14524); format: functional, cell-based
[2] = biological target: 5-hydroxytryptamine receptor 7 (Homo sapiens, UniProt P34969)
Estrogen receptor beta = Estrogen receptor beta (Homo sapiens, UniProt Q92731)
[3] = biological target: T1, Gastric inhibitory polypeptide receptor (Homo sapiens, UniProt P48546)
T1 sequence (P48546 whole entry): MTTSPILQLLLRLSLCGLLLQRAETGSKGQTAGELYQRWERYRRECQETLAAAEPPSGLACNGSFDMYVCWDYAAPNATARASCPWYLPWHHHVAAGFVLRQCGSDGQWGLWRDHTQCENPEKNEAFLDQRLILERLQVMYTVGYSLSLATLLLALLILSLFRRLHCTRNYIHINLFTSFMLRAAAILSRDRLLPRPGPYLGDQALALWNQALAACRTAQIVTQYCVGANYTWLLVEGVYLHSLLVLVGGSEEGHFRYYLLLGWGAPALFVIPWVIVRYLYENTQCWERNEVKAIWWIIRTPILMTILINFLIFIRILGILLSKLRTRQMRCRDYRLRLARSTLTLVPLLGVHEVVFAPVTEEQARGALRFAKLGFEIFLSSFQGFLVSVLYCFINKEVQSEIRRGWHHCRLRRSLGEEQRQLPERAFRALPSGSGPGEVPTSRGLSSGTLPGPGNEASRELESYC

[4] = biological target: T2, Corticotropin-releasing factor receptor 2 (Homo sapiens, UniProt Q13324)
T2 sequence (Q13324 whole entry): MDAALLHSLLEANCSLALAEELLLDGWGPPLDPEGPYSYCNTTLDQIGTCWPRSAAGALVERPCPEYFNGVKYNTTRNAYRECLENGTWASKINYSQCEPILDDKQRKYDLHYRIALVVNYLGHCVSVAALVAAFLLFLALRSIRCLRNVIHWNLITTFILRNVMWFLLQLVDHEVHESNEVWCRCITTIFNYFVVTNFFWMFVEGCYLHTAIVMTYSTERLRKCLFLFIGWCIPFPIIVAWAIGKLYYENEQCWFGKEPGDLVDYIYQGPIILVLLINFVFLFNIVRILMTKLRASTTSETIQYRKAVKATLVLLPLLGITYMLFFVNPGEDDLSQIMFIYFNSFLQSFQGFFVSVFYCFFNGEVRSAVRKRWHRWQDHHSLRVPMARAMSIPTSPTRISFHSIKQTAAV

[5] = biological target: T3, Corticotropin-releasing factor receptor 1 (Homo sapiens, UniProt P34998)
T3 sequence (P34998 whole entry): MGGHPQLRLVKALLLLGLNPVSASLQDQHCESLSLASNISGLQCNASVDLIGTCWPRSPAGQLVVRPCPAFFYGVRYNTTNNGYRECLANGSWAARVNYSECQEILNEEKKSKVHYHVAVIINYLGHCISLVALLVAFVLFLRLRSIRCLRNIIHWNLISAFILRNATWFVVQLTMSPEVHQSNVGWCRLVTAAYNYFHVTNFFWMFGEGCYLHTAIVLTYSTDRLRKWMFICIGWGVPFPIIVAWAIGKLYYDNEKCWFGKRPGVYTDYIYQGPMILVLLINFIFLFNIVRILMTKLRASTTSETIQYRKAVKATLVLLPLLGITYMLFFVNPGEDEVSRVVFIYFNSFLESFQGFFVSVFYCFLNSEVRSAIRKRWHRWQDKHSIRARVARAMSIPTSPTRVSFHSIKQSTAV

[6] = biological target: T4, Alpha-1A adrenergic receptor (Homo sapiens, UniProt P35348)
T4 sequence (P35348 whole entry): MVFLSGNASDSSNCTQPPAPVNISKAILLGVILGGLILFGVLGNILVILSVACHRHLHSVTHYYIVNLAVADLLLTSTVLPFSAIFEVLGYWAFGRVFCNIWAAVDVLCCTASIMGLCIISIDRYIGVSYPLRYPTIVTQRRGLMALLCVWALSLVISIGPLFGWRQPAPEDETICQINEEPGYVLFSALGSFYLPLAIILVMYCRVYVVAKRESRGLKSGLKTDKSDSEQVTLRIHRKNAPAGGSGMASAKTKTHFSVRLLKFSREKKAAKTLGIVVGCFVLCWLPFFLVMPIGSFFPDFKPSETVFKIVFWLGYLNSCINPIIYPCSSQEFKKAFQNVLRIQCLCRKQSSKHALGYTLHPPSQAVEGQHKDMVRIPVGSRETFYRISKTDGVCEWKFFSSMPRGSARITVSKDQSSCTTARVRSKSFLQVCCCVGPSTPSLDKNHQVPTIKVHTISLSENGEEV

[7] = biological target: Neurotensin receptor type 1 (Homo sapiens, UniProt P30989)
[8] = biological target: T5, Neuropeptide Y receptor type 2 (Homo sapiens, UniProt P49146)
T5 sequence (P49146 whole entry): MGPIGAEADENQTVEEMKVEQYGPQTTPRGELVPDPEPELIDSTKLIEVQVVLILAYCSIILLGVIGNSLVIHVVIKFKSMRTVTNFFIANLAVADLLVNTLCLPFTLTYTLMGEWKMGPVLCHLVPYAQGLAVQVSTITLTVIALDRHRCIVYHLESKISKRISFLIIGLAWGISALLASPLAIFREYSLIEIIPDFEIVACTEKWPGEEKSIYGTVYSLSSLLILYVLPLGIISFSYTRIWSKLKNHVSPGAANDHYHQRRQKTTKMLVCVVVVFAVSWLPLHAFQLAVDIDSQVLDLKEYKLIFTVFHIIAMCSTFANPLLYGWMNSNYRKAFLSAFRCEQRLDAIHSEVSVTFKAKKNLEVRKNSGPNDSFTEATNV
Further: assay procedure not described here.

Chain of Sodium channel protein type 5 subunit alpha (Q14524 whole entry): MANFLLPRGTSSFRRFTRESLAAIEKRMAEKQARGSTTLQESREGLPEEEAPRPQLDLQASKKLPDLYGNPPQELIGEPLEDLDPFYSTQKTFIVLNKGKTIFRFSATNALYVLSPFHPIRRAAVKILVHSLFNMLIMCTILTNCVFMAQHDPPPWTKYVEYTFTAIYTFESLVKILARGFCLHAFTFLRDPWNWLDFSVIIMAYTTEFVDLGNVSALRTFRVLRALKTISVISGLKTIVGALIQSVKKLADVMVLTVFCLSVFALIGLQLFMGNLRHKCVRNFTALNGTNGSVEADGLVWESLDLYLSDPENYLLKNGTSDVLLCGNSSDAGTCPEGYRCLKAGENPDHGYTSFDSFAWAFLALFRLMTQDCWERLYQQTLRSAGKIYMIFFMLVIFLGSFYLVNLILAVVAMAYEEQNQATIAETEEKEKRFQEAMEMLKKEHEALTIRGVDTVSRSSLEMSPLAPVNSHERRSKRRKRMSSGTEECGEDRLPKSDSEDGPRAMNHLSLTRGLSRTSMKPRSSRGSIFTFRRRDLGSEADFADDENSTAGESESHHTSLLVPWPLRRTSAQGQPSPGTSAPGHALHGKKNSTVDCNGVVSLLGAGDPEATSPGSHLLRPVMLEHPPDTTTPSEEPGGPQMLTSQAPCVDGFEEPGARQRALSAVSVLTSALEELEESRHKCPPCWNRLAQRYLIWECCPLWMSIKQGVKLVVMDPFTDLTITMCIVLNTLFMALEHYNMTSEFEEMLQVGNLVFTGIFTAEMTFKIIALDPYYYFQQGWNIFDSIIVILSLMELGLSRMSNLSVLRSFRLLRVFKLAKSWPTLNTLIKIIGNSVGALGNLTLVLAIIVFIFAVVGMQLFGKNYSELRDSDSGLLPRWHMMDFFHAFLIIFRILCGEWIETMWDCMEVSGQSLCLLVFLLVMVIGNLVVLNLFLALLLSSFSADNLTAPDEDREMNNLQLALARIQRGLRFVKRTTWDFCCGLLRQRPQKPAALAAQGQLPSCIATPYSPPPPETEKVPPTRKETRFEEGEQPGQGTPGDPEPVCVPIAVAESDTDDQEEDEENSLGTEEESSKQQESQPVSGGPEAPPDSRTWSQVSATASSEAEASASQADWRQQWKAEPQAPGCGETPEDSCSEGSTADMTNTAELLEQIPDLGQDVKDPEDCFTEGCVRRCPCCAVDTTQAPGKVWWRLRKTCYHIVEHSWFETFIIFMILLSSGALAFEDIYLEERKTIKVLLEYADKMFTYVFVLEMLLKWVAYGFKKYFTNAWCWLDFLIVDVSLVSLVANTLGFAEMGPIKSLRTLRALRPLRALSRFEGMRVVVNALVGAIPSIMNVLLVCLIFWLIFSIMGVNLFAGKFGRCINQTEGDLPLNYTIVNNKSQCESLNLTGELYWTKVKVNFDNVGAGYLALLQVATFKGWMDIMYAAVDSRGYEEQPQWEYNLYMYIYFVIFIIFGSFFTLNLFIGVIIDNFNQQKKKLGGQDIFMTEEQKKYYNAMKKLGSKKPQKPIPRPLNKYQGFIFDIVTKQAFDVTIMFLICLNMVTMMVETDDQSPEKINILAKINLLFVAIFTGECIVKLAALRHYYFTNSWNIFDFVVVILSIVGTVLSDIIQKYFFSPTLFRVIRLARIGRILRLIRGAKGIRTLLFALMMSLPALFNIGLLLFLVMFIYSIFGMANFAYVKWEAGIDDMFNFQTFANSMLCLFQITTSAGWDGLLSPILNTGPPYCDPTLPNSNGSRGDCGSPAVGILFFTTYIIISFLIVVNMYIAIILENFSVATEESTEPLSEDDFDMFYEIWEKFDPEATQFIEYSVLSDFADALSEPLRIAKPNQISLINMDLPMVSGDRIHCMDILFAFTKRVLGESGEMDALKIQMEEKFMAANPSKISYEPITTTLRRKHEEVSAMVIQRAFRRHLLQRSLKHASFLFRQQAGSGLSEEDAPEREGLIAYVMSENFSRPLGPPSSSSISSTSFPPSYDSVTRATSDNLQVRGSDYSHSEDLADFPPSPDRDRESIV
Chain of Neurotensin receptor type 1 (P30989 whole entry): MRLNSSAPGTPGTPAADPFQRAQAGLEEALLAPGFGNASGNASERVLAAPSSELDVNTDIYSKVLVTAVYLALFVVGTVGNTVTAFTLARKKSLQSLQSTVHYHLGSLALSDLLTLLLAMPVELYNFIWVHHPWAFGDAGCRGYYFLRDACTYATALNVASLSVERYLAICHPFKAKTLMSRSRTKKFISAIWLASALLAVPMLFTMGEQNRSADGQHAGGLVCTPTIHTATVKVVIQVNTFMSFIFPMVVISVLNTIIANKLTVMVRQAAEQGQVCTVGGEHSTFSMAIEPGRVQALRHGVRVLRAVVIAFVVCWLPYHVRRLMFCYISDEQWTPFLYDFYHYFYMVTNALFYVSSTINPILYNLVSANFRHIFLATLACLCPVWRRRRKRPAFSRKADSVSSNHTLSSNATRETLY
Chain of 5-hydroxytryptamine receptor 7 (P34969 whole entry): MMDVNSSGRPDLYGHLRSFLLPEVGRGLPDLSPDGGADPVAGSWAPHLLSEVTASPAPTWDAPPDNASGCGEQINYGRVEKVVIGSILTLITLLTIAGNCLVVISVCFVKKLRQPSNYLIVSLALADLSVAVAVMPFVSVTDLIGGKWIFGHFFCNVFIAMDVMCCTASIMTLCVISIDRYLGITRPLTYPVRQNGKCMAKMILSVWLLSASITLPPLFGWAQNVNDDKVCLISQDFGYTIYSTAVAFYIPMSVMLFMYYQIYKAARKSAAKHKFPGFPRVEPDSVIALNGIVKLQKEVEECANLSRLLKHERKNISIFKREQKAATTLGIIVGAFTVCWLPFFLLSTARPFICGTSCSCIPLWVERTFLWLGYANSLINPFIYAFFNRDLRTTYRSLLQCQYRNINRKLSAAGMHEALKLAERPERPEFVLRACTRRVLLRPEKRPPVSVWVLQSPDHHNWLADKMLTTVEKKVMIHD
Chain of Estrogen receptor beta (Q92731 whole entry): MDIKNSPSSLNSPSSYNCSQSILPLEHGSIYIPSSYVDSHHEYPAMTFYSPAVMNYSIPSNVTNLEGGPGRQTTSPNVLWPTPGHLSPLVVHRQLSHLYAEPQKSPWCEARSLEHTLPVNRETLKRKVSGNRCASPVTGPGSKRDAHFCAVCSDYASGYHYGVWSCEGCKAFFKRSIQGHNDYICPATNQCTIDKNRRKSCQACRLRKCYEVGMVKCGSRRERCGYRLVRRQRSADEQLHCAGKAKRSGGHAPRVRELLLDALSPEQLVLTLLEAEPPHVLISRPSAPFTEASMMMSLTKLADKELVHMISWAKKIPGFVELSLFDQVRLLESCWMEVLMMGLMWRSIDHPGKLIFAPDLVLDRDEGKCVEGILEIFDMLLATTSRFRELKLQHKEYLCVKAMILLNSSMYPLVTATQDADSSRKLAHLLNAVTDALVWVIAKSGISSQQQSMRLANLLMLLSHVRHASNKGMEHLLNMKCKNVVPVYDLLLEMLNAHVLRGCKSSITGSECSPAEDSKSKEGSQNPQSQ

SMILES | AC50 [1] [µM] | AC50 [2] [µM] | AC50 (Estrogen receptor beta) [µM] | AC50 [3] [µM] | AC50 [4] [µM] | AC50 [5] [µM] | AC50 [6] [µM] | AC50 [7] [µM] | AC50 [8] [µM]
C[C@@H]1CN(c2c(F)c(N)c3c(=O)c(C(=O)O)cn(C4CC4)c3c2F)C[C@H](C)N1 [SPARFLOXACIN] | > 50 | – | – | – | – | – | – | – | –
COc1cccc2c1C(=O)c1c(O)c3c(c(O)c1C2=O)C[C@@](O)(C(=O)CO)C[C@@H]3O[C@H]1C[C@H](N)[C@H](O)[C@H](C)O1 [DOXORUBICIN] | > 50 | – | – | – | – | – | – | – | –
N=C(N)NC(=O)c1nc(Cl)c(N)nc1N [AMILORIDE] | – | > 10 | > 30 | > 30 | > 30 | > 30 | > 10 | > 30 | > 30
C[C@]12C=CC(=O)C=C1CC[C@@H]1[C@@H]2[C@@H](O)C[C@@]2(C)[C@H]1CC[C@]2(O)C(=O)CO [PREDNISOLONE] | – | – | > 30 | > 30 | > 30 | > 30 | – | > 30 | > 30
Cc1ccc(O)c([C@H](CCN(C(C)C)C(C)C)c2ccccc2)c1 [TOLTERODINE] | – | > 10 | – | – | – | – | > 10 | – | –
